Target: T1, HDAC6 (Homo sapiens, UniProt Q9UBN7)
T1 sequence (Q9UBN7 1-1215): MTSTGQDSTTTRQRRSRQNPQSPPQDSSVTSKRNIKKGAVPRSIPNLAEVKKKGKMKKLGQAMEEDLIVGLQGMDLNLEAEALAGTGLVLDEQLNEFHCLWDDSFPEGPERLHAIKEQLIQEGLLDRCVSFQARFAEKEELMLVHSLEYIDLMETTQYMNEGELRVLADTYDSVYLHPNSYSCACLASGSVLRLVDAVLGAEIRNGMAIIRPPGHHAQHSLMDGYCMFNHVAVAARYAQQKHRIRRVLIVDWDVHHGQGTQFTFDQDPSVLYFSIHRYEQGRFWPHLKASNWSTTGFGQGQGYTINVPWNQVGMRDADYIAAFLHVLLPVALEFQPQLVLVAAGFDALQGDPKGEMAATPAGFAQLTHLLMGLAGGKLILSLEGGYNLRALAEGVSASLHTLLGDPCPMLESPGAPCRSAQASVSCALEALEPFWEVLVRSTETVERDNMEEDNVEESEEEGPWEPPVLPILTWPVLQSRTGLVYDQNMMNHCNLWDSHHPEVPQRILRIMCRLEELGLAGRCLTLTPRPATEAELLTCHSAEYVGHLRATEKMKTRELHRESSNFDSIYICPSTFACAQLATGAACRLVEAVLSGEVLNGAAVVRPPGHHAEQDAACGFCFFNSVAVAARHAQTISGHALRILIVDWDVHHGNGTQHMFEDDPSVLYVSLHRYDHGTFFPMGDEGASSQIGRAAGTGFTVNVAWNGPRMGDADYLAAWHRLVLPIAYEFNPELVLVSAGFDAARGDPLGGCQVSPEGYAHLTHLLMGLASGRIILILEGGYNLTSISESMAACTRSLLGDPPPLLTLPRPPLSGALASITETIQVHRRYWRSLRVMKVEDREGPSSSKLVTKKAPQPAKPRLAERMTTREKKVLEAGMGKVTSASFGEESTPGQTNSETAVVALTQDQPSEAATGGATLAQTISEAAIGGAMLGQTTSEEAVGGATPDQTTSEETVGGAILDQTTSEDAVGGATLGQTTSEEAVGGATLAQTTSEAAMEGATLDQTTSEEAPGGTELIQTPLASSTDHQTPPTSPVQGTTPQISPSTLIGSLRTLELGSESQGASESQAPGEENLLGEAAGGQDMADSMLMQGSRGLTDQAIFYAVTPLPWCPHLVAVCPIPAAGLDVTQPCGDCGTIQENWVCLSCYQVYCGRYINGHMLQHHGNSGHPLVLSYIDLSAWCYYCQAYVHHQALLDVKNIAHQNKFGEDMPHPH
Test: HDAC enzyme inhibition assay
Format: biochemical
Design: purchased BPS Bioscience 50006
Protocol: Bio-Rad) to Immobilon-FL PVDF membranes (Catalog# IPFL00005, Mill ipore Merck, Burlington, MA, USA) at 1.0 A for 30 min and treated with 5% milk-powder solution for 1 h at room temperature […]
Signaling Technology) antibody solutions in 1:1000 –1:8000 dilutions at 4 °C overnight. […]
Significance testing was performed with a one -way analysis of variance (ANOVA). Dunnett’s post -hoc test was employed to obtain significance levels of each mean compared to a reference mean value.
2.7. HDAC Enzyme Inhibition Assay […]
[4] For test compounds and controls, serial dilutions of the respective DMSO stock solution in DMSO were prepared, and 1.0 μL /well of this serial dilution were transferred […]
into OptiPlate-96 black microplates (PerkinElmer, Waltham, […], USA). A volume of 4 µL/well assay […]
BSA) was added. In the case of HDAC1, 2, and 6, a volume of 35 μL/well of the fluorogenic substrate […]
The total assay volume of 50 μL (max. 2 % DMSO) was incubated at 37 °C for 90 min. Subsequently, 50 μL /well of trypsin (0.4 mg/mL) in trypsin buffer (50 mM Tris−HCl, pH 8.0, 100 mM NaCl) was added, followed by additional 30 min of incubation at […]
OPTIMA microplate reader (BMG labtech, Ortenburg, Germany). The half maximal inhibitory concentration (IC50) was determined by plotting dose response curves and nonlinear regression with GraphPad Prism (GraphPad Software).
2.8. MTT Cell Viability Assay […]

| IC50 [nM] | SMILES |
| --- | --- |
| 53 ± 1 | O=C(CCCCCCNC(=O)c1ccc(NC(=O)CCCCCCCCCCCN(C(=O)CCl)C(C(=O)NCc2ccccc2)c2ccc(Cl)c(Cl)c2)cc1)NO (centres unmarked) [Compound 1j] |
| 7 ± 1 | O=C(CCCCCCNC(=O)c1ccc(N(C(=O)CCl)C(C(=O)NCc2ccccc2)c2ccc(Cl)c(Cl)c2)cc1)NO (centres unmarked) [Compound 2] |
